Laboratory results taken from patent US20220218765A1, “ASSISTANT AGENT FOR ASSISTING INTRODUCTION INTO LIVING BODY AND METHOD OF UTILIZING THE SAME” (SHINBIOSIS CORPORATION, priority 2019, published 2022).

Test system: STZ-induced diabetes model mouse (STZ-mouse)
Test: Blood glucose level in STZ-induced diabetes model mouse (Test Example 4-1)
Assay type: in vivo, CD-1 (ICR) mice
Details: STZ-mice, Day 14 after the treatment
Procedure: The “complex containing an active substance” was injected into the intestine of a STZ-induced diabetes model mouse (STZ-mouse) together with the “assistant agent for assisting introduction into a living body”, and then measurement of a “change in plasma glucose (blood glucose level) (Test Example 4-1)” and “measurement of the plasma insulin level (Test Example 4-2)” at the end of the treatment were performed.
“Compositions containing an active substance” below were prepared by mixing the above-described “active substance complex (Bio3 formulation)” with the respective “assistant agents for assisting introduction into a living body” above, and were then used in the experiments.
CD-1 (ICR) mice (male, 4 weeks old) purchased from Charles River Japan were preliminarily kept for 1 week before experiment.
Procedure for Producing Disease Model Mice STZ (40 mg/kg) prepared in a citrate buffer (100 mmol/L, pH 4.5) was intravenously administered (iv) to the tail veins of the above-mentioned mice.
One week after, blood was collected from ophthalmic venous plexus of the mice with a capillary, and the mice were divided into the following four groups (six mice per group) based on the measured blood glucose levels such that the average blood glucose levels of the groups were equal to one another as follows. […]

Substance: insulin
- blood glucose level as ratio to the non-treated control group: up to 60%
